Earlier results as cited in patent US7273870B2, “Stabilized difloxacin injectable solution” (Wyeth, priority 2002, dated 2007).

Solubility in water: not highly soluble in water
Structure (SMILES): CN1CCN(c2cc3c(cc2F)c(=O)c(C(=O)O)cn3-c2ccc(F)cc2)CC1 [Difloxacin, 6-fluoro-1-(4-fluorophenyl)-1,4-dihydro-7-(4-methyl-1-piperadinyl) 4-oxo-3-quinolinecarboxylic acid]
